In PMC9205905, “Core and rod structures of a thermophilic cyanobacterial light-harvesting phycobilisome” (Nature Communications, 2022):

How the values were obtained:
[1] = target: T1, CpcA (phycocyanin alpha-subunit) (Thermostichus vulcanus, UniProt Q9AM02); test: cryo-EM structure, […] Å; format: binding; settings: covalent thioether to Cys84 of CpcA
T1 construct: native phycocyanin rod dissociated from intact phycobilisomes; two PC hexamers with linkers CpcC, CpcD, CpcG; with C-phycocyanin beta subunit

[2] = target: T2, CpcB (phycocyanin beta-subunit) (Thermostichus vulcanus, UniProt Q71RW8); test: cryo-EM structure, […] Å; format: binding; settings: covalent thioether to Cys84 and Cys155 of CpcB
T2 construct: native phycocyanin rod dissociated from intact phycobilisomes; two PC hexamers with linkers CpcC, CpcD, CpcG; with C-phycocyanin alpha subunit

Q: Which results are given for `CC=C1C(=Cc2[nH]c(C=C3N=C(C=C4NC(=O)C(CC)=C4C)C(C)=C3CCC(=O)O)c(CCC(=O)O)c2C)NC(=O)[C@@H]1C` [phycocyanobilin]?
A: cryo-EM structure, 4.2 Å [1]: Arrangement of chromophores in the PC rod; cryo-EM structure, 4.2 Å [2]: Arrangement of chromophores in the PC rod
